Legend:
CDK2/Cyclin E1 = biological target: T1, CDK2/Cyclin E1 (Homo sapiens, UniProt P24941); test: Caliper Assay (LabChip EZ Reader mobility shift assay), inhibition of CDK2/Cyclin E1 activity; type: biochemical; details: 2.5 nM CDK2/Cyclin E1(14-475), 100 μM ATP, 30 min preincubation; read-out: Caliper Assay (CDK2/CCNE1): IC50
T1 construct: purchased 14-475
In short: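 Compounds were preincubated 30 min with CDK2/Cyclin E1(14-475), then run for 100 min with 2.5 nM enzyme, 100 μM ATP and 1.5 μM 5-FAM-QSPKKG peptide in HEPES pH 7.5 (final). Reactions were EDTA-stopped and substrate-to-product conversion read by mobility shift. IC50 came from a four-parameter fit.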

Kuramochi cells = test: IncuCyte Kuramochi Assay (cell proliferation); type: cell-based; details: 72 h, Kuramochi cells labeled with mApple-H2B, cell count, read-out: IncuCyte - Kuramochi RB-WT: IC50
In short: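 GI50 came from dose-response fits of cell-count fold change between 0 and 72 h, normalized to DMSO controls. Counts were fluorescent nuclei from live-cell images over a 10-point, ½ log series starting at 20 μM.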

| SMILES | IC50 (CDK2/Cyclin E1) [µM] | IC50 (Kuramochi cells) [µM] |
| --- | --- | --- |
| O=C(c1cnccn1)N1CC(c2nnc(C(F)(F)c3ccc(Cl)c(Cl)c3)o2)C2(C1)CN(C(=O)[C@H]1CC1(F)F)C2 (stereo partly drawn) [I-176, (8-(5-((3,4-dichlorophenyl)difluoromethyl)-1,3,4-oxadiazol-2-yl)-2-((R)-2,2-difluorocyclopropane-1-carbonyl)-2,6-diazaspiro[3.4]octan-6-yl)(pyrazin-2-yl)methanone] | 1 to 10 | > 10 |
| CC1(C)OC1C(=O)N1CC2(CN(C(=O)c3cncs3)CC2c2nnc(C(F)(F)c3ccc(Cl)c(Cl)c3)o2)C1 (stereo not shown) [I-179, (8-(5-((3,4-dichlorophenyl)difluoromethyl)-1,3,4-oxadiazol-2-yl)-2-(3,3-dimethyloxirane-2-carbonyl)-2,6-diazaspiro[3.4]octan-6-yl)(thiazol-5-yl)methanone] | > 10 | 5 to 10 |
| O=C(c1cncs1)N1CC(c2nnc(C(F)(F)c3ccc(Cl)c(Cl)c3)o2)C2(CC(C(=O)N3CCC3)C2)C1 (stereo not shown) [I-180] | > 10 | > 10 |
| O=C(c1cncs1)N1CC(c2nnc(C(F)(F)c3ccc(Cl)c(Cl)c3)o2)C2(CN(CC3CCCO3)C2)C1 (stereo not shown) [I-182, (8-(5-((3,4-dichlorophenyl)difluoromethyl)-1,3,4-oxadiazol-2-yl)-2-((tetrahydrofuran-2-yl)methyl)-2,6-diazaspiro[3.4]octan-6-yl)(thiazol-5-yl)methanone] | > 10 | > 10 |
| FC(F)(c1ccc(Cl)c(Cl)c1)c1nnc(C2CN(c3ncnc4ncsc34)CC23CN(c2ncccn2)C3)o1 (stereo not shown) [I-183, 2-((3,4-dichlorophenyl)difluoromethyl)-5-(2-(pyrimidin-2-yl)-6-(thiazolo[4,5-d]pyrimidin-7-yl)-2,6-diazaspiro[3.4]octan-8-yl)-1,3,4-oxadiazole] | > 10 | > 10 |
| O=C(c1cncs1)N1CC(c2nnc(C(F)(F)c3ccc(Cl)c(Cl)c3)o2)C2(C1)CN(C(=O)N1CCC1)C2 (stereo not shown) [I-186, Azetidin-1-yl(8-(5-((3,4-dichlorophenyl)difluoromethyl)-1,3,4-oxadiazol-2-yl)-6-(thiazole-5-carbonyl)-2,6-diazaspiro[3.4]octan-2-yl)methanone] | > 10 | > 10 |
| O=C(c1cncs1)N1CC(c2nnc(C(F)(F)c3ccc(Cl)c(Cl)c3)o2)C2(C1)CN(c1cccnn1)C2 (stereo not shown) [I-187, (8-(5-((3,4-dichlorophenyl)difluoromethyl)-1,3,4-oxadiazol-2-yl)-2-(pyridazin-3-yl)-2,6-diazaspiro[3.4]octan-6-yl)(thiazol-5-yl)methanone] | > 10 | > 10 |
| CC(C)(CO)C(=O)N1CC2(CN(C(=O)c3cncs3)CC2c2nnc(C(F)(F)c3ccc(Cl)c(Cl)c3)o2)C1 (stereo not shown) [I-189] | 1 to 10 | > 10 |
| CC1(C)C[C@@H]1C(=O)N1CC2(CN(C(=O)c3cncs3)CC2c2cn(Cc3ccc(C4CC4)cc3)nn2)C1 (stereo partly shown) [I-193] | 1 to 10 | > 10 |
| CC(=O)N1CC2(C1)CN(C(=O)c1cncs1)CC2c1nnc(C(F)(F)c2ccc(Cl)c(Cl)c2)o1 (stereo not shown) [I-196] | > 10 | > 10 |

Second part, led by results:

| IC50 (CDK2/Cyclin E1) [µM] | SMILES | IC50 (Kuramochi cells) [µM] |
| --- | --- | --- |
| 1 to 10 | CC1(C(=O)N2CC3(C2)CN(c2ncnc4ncsc24)CC3c2nnc(C(F)(F)c3ccc(Cl)c(Cl)c3)o2)CC1(F)F (stereo not shown) [I-174, (8-(5-((3,4-dichlorophenyl)difluoromethyl)-1,3,4-oxadiazol-2-yl)-6-(thiazolo[4,5-d]pyrimidin-7-yl)-2,6-diazaspiro[3.4]octan-2-yl)(2,2-difluoro-1-methylcyclopropyl)methanone] | > 10 |
| > 10 | CC(C)(C#N)C(=O)N1CC2(CN(C(=O)c3cnccn3)CC2c2nnc(C(F)(F)c3ccc(Cl)c(Cl)c3)o2)C1 (stereo not shown) [I-175] | > 10 |
| > 10 | CC(C)(C#N)C(=O)N1CC2(CN(C(=O)c3cn[nH]c3)CC2c2nnc(C(F)(F)c3ccc(Cl)c(Cl)c3)o2)C1 (stereo not shown) [I-177] | > 10 |
| > 10 | CC(C)(O)C(=O)N1CC2(CN(C(=O)c3cncs3)CC2c2nnc(C(F)(F)c3ccc(Cl)c(Cl)c3)o2)C1 (stereo not shown) [I-178] | > 10 |
| > 10 | O=C(N1CC2(C1)CN(c1ncnc3ncsc13)CC2c1nnc(C(F)(F)c2ccc(Cl)c(Cl)c2)o1)C1(C(F)(F)F)CC1 (stereo not shown) [I-181, (8-(5-((3,4-dichlorophenyl)difluoromethyl)-1,3,4-oxadiazol-2-yl)-6-(thiazolo[4,5-d]pyrimidin-7-yl)-2,6-diazaspiro[3.4]octan-2-yl)(1-(trifluoromethyl)cyclopropyl)methanone] | > 10 |
| > 10 | O=C(c1cncs1)N1CC(c2nnc(C(F)(F)c3ccc(Cl)c(Cl)c3)o2)C2(C1)CN(c1ccccn1)C2 (stereo not shown) [I-184] | > 10 |
| > 10 | CC1(C)C[C@@H]1C(=O)N1CC2(CN(C(=O)c3cnc(C#N)s3)CC2c2nnc(C(F)(F)c3ccc(Cl)c(Cl)c3)o2)C1 (stereo partly shown) [I-185] | 5 to 10 |
| > 10 | CC(C)=CC(=O)N1CC2(C1)CN(C(=O)c1cncs1)CC2c1nnc(C(F)(F)c2ccc(Cl)c(Cl)c2)o1 (stereo not shown) [I-190] | > 10 |
| 1 to 10 | O=C(c1cn[nH]c1)N1CC(c2nnc(C(F)(F)c3ccc(Cl)c(Cl)c3)o2)C2(C1)CN(C(=O)[C@H]1CC1(F)F)C2 (stereo partly drawn) [I-191, (8-(5-((3,4-dichlorophenyl)difluoromethyl)-1,3,4-oxadiazol-2-yl)-2-((R)-2,2-difluorocyclopropane-1-carbonyl)-2,6-diazaspiro[3.4]octan-6-yl)(1H-pyrazol-4-yl)methanone] | > 10 |
| 1 to 10 | CC1(C)C[C@@H]1C(=O)N1CC2(C1)CN(c1ncnc3ncsc13)CC2c1nnc(C(F)(F)c2ccc(Cl)c(Cl)c2)o1 (stereo partly drawn) [I-192, (8-(5-((3,4-dichlorophenyl)difluoromethyl)-1,3,4-oxadiazol-2-yl)-6-(thiazolo[4,5-d]pyrimidin-7-yl)-2,6-diazaspiro[3.4]octan-2-yl)((S)-2,2-dimethylcyclopropyl)methanone] | 5 to 10 |
| 0.1 to 1 | CC1(C)C[C@@H]1C(=O)N1CC2(CN(C(=O)c3cncs3)CC2c2cn(Cc3ccc(C4(C(F)(F)F)CC4)cc3)nn2)C1 (stereo partly shown) [I-194] | > 10 |
| 1 to 10 | CC1(C)C[C@@H]1C(=O)N1CC2(CN(C(=O)c3cncs3)CC2c2cn(Cc3cccc(C(F)(F)F)c3)nn2)C1 (stereo partly shown) [I-195] | > 10 |
| > 10 | O=C(c1cncs1)N1CC(c2nnc(Cc3ccc(Cl)c(Cl)c3)o2)C2(C1)CN(c1ccccn1)C2 (stereo not shown) [I-197, (8-(5-(3,4-dichlorobenzyl)-1,3,4-oxadiazol-2-yl)-2-(pyridin-2-yl)-2,6-diazaspiro[3.4]octan-6-yl)(thiazol-5-yl)methanone] | > 10 |
| 0.01 to 0.1 | C=C(c1ccc(C(F)(F)c2nnc(C3CN(C(=O)c4cncs4)CC34CN(C(=O)[C@H]3CC3(C)C)C4)o2)cc1)C(F)(F)F (stereo partly drawn) [I-198, (8-(5-(difluoro(4-(3,3,3-trifluoroprop-1-en-2-yl)phenyl)methyl)-1,3,4-oxadiazol-2-yl)-2-((S)-2,2-dimethylcyclopropane-1-carbonyl)-2,6-diazaspiro[3.4]octan-6-yl)(thiazol-5-yl)methanone] | 0.5 to 5 |
| > 10 | CC1(C)C[C@@H]1C(=O)N1CC2(CN(C(=O)c3cnc(Br)s3)CC2c2nnc(C(F)(F)c3ccc(Cl)c(Cl)c3)o2)C1 (stereo partly shown) [I-199] | 5 to 10 |
| > 10 | CC(=O)N1CC(c2nnc(C(F)(F)c3ccc(Cl)c(Cl)c3)o2)C2(C1)CN(C(=O)[C@H]1CC1(C)C)C2 (stereo partly shown) [I-200] | > 10 |
